From article PMC12040169 (PLOS Biology, 2025)

Test: in vitro
Conditions: human, hela cells, % viability

Compared with `Cc1nn(C)c(N2CCNCC2)c1NC(=O)c1cnccn1` [CBK050308T], `Cc1nn(C)c(N2CCNCC2)c1NC(=O)c1cc(-c2ccccc2)oc1C` [CBK050356T] is higher in viability at 28.5 h, 10 µM: 86.3% for the first, 92.8% for the second.

Going from `CSc1nc(NC(=O)c2ccoc2)cc(N2CCNCC2)n1` [CBK050314T] to `CSc1nc(NC(=O)c2cccs2)cc(N2CCNCC2)n1` [CBK050315T], the viability at 28.5 h, 10 µM rises from 88.9% to 89.7%.

Compared with `Cc1oc(-c2ccccc2)cc1C(=O)Nc1c(F)cc(F)cc1OC1CCNCC1` [CBK050326T], `COc1cc(F)cc(OC2CCNCC2)c1NC(=O)c1c(-c2ccccc2)noc1C` [CBK050350T] is higher in viability at 28.5 h, 10 µM: 89.8% for the first, 91.8% for the second.

First: O=C(Nc1c(F)cc(F)cc1OC1CCNCC1)c1coc2c1C(=O)CCC2 [CBK050331T]
Second: CC1(C)CC(=O)C=C(C(=O)Nc2c(F)cc(F)cc2OC2CCNCC2)O1 [CBK050332T]
The viability at 28.5 h, 10 µM of the first is lower: 93.9% for the first, 110% for the second.

Going from `COc1cc(F)cc(OC2CCNCC2)c1NC(=O)/C=C/c1cccnc1` [CBK050344T] to `COc1ccc([C@@]23CC[C@@H](NC(=O)Nc4ccc(F)c(C#N)c4)C[C@@H]2N(C)CC3)cc1OC` [CBK051659T], the viability at 28.5 h, 10 µM falls from 103% to 84%.

First: CSc1nc(NC(=O)c2cc(-c3ccccc3)oc2C)cc(N2CCNCC2)n1 [CBK050364T]
Second: c1ccc(Cn2ccc3c(N4CCNCC4)nccc32)cc1 [CBK051672C]
The viability at 28.5 h, 10 µM of the first is higher: 89.9% for the first, 87.9% for the second.

First: CC(=O)N1CCOc2ccccc21 [CBK050388]
Second: CCOC(=O)C1CCN(S(=O)(=O)c2ccccc2)CC1 [CBK051091]
The viability at 28.5 h, 10 µM of the first is lower: 92.7% for the first, 107% for the second.

Compared with `CCN(CC)C(=O)c1sccc1NS(=O)(=O)Cc1ccccc1` [CBK050393], `O=S(=O)(Cc1ccccc1)Nc1nccnc1-c1cccs1` [CBK050766] is lower in viability at 28.5 h, 10 µM: 106% for the first, 91.3% for the second.

First: CCOC(=O)c1c(NS(=O)(=O)c2cc(Cl)sc2Cl)sc2c1CCCC2 [CBK050397]
Second: CCN(CC)C(=O)c1sc2ncccc2c1NS(=O)(=O)c1cc(Cl)sc1Cl [CBK050615]
The viability at 28.5 h, 10 µM of the first is higher: 96.1% for the first, 92.2% for the second.

First: O=C(Nc1ccc(F)cc1)c1ccc(NS(=O)(=O)Cc2ccccc2[N+](=O)[O-])cc1 [CBK050405]
Second: O=C(Nc1ccc(F)cc1)c1cccc(NS(=O)(=O)c2cc(Br)c(Cl)s2)c1 [CBK050410]
The viability at 28.5 h, 10 µM of the first is lower: 93% for the first, 93.4% for the second.

Compared with `O=S(=O)(Nc1cccc(-c2nnn[nH]2)c1)c1ccc(F)cc1` [CBK050470], `O=S(=O)(Nc1ccc2nsnc2c1)c1ccc(F)cc1` [CBK051010] is higher in viability at 28.5 h, 10 µM: 88.5% for the first, 90.2% for the second.

First: Cn1nccc1NS(=O)(=O)c1ccc(F)cc1 [CBK050484]
Second: Cc1cnc(CNS(=O)(=O)c2ccc(F)cc2)cn1 [CBK050489]
The viability at 28.5 h, 10 µM of the first is lower: 106% for the first, 107% for the second.

Compared with `CN1CCN(S(=O)(=O)c2ccc(F)cc2)CC1` [CBK050491], `CC(C)(C)c1ccc(S(=O)(=O)N2CCNC(=O)C2)cc1` [CBK051238] is higher in viability at 28.5 h, 10 µM: 88% for the first, 88.9% for the second.

Going from `O=S(=O)(Nc1nc2cc(Cl)ccc2o1)c1ccc(Oc2ccccc2)cc1` [CBK050499] to `CCCS(=O)(=O)Nc1nccnc1-c1ccc(Oc2ccccc2)cc1` [CBK050908], the viability at 28.5 h, 10 µM rises from 97.8% to 106%.

Compared with `COc1ccc(S(=O)(=O)Nc2nc(C)c(C(=O)Nc3ccc(F)cc3)s2)cc1OC` [CBK050538], `COc1ccc(S(=O)(=O)Nc2nccnc2-c2cccs2)cc1OC` [CBK050774] is higher in viability at 28.5 h, 10 µM: 103% for the first, 104% for the second.

Compared with `Cc1nc(NS(=O)(=O)c2c(C)noc2C)sc1C(=O)N1CCOCC1` [CBK050574], `CCN(CC)C(=O)c1sc2ncccc2c1NS(=O)(=O)c1c(C)noc1C` [CBK050617] is higher in viability at 28.5 h, 10 µM: 98.4% for the first, 115% for the second.

First: COc1ccc(S(=O)(=O)Nc2nccnc2-c2ccc(CN3C(=O)CCC3=O)cc2)cc1 [CBK050699]
Second: CN(C)c1ccc(-c2nccnc2NS(=O)(=O)c2ccc3ccccc3c2)cc1 [CBK050794]
The viability at 28.5 h, 10 µM of the first is higher: 110% for the first, 93.4% for the second.

First: CC(=O)Nc1cccc(-c2nccnc2NS(=O)(=O)c2cccs2)c1 [CBK050760]
Second: CN(C)c1ccc(-c2nccnc2NS(=O)(=O)c2cccs2)cc1 [CBK050804]
The viability at 28.5 h, 10 µM of the first is higher: 92.7% for the first, 90.5% for the second.

Compared with `CCCS(=O)(=O)Nc1nccnc1-c1cccs1` [CBK050763], `CCCCc1ccc(S(=O)(=O)Nc2nccnc2-c2cccs2)cc1` [CBK050770] is higher in viability at 28.5 h, 10 µM: 89.4% for the first, 90.4% for the second.

Compared with `CN(C)c1ccc(-c2nccnc2NS(=O)(=O)c2ccc(C(F)(F)F)cc2)cc1` [CBK050802], `O=S(=O)(Nc1nccnc1-c1ccc2c(c1)OCO2)c1cccc(Cl)c1` [CBK050951] is lower in viability at 28.5 h, 10 µM: 95.1% for the first, 92.4% for the second.

Going from `O=C(O)c1nccnc1-c1ccc(COc2ccccc2)cc1` [CBK050806] to `O=C(NO)c1nccnc1-c1ccc(COc2ccccc2)cc1` [CBK050841], the viability at 28.5 h, 10 µM rises from 90.2% to 96.4%.

First: O=C(O)c1nccnc1-c1ccc(COc2cccc3ccccc23)cc1 [CBK050810]
Second: O=C(O)c1nccnc1-c1ccc(Cn2ccc3ccccc32)cc1 [CBK050811]
The viability at 28.5 h, 10 µM of the first is lower: 95.4% for the first, 100% for the second.

Going from `Cc1nc2cc(OCc3ccc(-c4nccnc4-c4nnn[nH]4)cc3)ccc2s1` [CBK050820] to `O=C(Nc1nccs1)c1nccnc1-c1ccc(COc2ccccc2)cc1` [CBK050839], the viability at 28.5 h, 10 µM falls from 108% to 95.6%.

First: O=C(NCc1ccncc1)c1nccnc1-c1ccc(COc2ccccc2)cc1 [CBK050836]
Second: O=C(NCCOc1ccccc1)c1nccnc1-c1ccc(COc2ccc3c(c2)CCCC3)cc1 [CBK050852]
The viability at 28.5 h, 10 µM of the first is lower: 88.1% for the first, 91.2% for the second.

Going from `CS(=O)(=O)Nc1nccnc1-c1ccc2c(c1)OCO2` [CBK050934] to `Cc1ccccc1S(=O)(=O)Nc1nccnc1-c1ccc2c(c1)OCO2` [CBK050941], the viability at 28.5 h, 10 µM rises from 95.1% to 122%.

First: CN1CCN(c2cc(-c3ccncc3)nc3ccccc23)CC1 [CBK050976B]
Second: O=C(c1nn2c(C(F)(F)F)cc(-c3ccccc3)nc2c1Cl)N1CCOCC1 [CBK051498]
The viability at 28.5 h, 10 µM of the first is lower: 89.1% for the first, 90.4% for the second.

Going from `COc1ccc([C@@]23CC[C@@H](NC(=O)Nc4ccon4)C[C@@H]2N(C)CC3)cc1OC` [CBK051069T] to `COc1ccc([C@@]23CC[C@@H](NC(=O)Nc4ccc(-c5csnn5)cc4)C[C@@H]2N(C)CC3)cc1OC` [CBK051163T], the viability at 28.5 h, 10 µM falls from 97% to 95.3%.

Going from `O=C(NCCc1c[nH]c2ccccc12)NC(=O)C1CCNCC1` [CBK051094] to `C=CCN1CCC(C(=O)NC(=O)NCC2COc3ccccc3O2)CC1` (stereo not shown) [CBK051099], the viability at 28.5 h, 10 µM falls from 90.2% to 84.2%.

Going from `CCOC(=O)C1CCN(S(=O)(=O)c2ccccc2C#N)CC1` [CBK051111] to `CCOC(=O)C1CCN(S(=O)(=O)c2ccc(C(C)(C)C)cc2)CC1` [CBK051240], the viability at 28.5 h, 10 µM falls from 93.6% to 83.5%.

First: CCOC(=O)C1CCN(S(=O)(=O)c2c(C)noc2C)CC1 [CBK051112]
Second: CCOC(=O)c1nc(N)oc1C [CBK056636]
The viability at 28.5 h, 10 µM of the first is higher: 96.9% for the first, 85.3% for the second.

Going from `Cc1ccc(S(=O)(=O)N2CCCCC2CO)cc1` (stereo not shown) [CBK051142] to `O=S(=O)(c1ccc(OC(F)(F)F)cc1)N1CCCCC1CO` (stereo not shown) [CBK051527], the viability at 28.5 h, 10 µM falls from 114% to 91.7%.

Compared with `COc1ccc(CCN(C)C(=O)CCCc2cc3ccccc3[nH]2)cc1OC` [CBK051152], `COc1ccc(CCN2CCC(CNC(=O)NCc3ccccc3)CC2)cc1OC` [CBK051511T] is lower in viability at 28.5 h, 10 µM: 93.7% for the first, 92.3% for the second.

Compared with `CC(C)c1nsc(NS(=O)(=O)Cc2ccccc2)n1` [CBK051188], `Cc1nc(S(=O)(=O)Nc2nc(C(C)C)ns2)cn1C` [CBK051323] is lower in viability at 28.5 h, 10 µM: 112% for the first, 107% for the second.

Going from `CC(=O)Nc1nc(C)c(S(=O)(=O)Nc2nc(C(C)C)ns2)s1` [CBK051227] to `CC(C)c1nsc(NS(=O)(=O)c2cc(C(F)(F)F)cc(C(F)(F)F)c2)n1` [CBK051263], the viability at 28.5 h, 10 µM falls from 90.9% to 84.9%.

Going from `CC(C)c1nsc(NS(=O)(=O)c2cc(OCC(F)(F)F)ccc2OCC(F)(F)F)n1` [CBK051262] to `COc1ccc([C@@]23CC[C@@H](NC(=O)Nc4cccc(S(=O)(=O)C(F)(F)F)c4)C[C@@H]2N(C)CC3)cc1OC` [CBK051275T], the viability at 28.5 h, 10 µM falls from 106% to 99%.

First: O=S(=O)(c1ccc(Br)cc1F)N1CCCCC1CO (stereo not shown) [CBK051302]
Second: CN(C)CC1CCCCN1S(=O)(=O)c1ccc(C(C)(C)C)cc1 (stereo not shown) [CBK051347]
The viability at 28.5 h, 10 µM of the first is lower: 92.9% for the first, 108% for the second.

Compared with `CC(=O)c1cnc2cc(-c3ccc(Cl)cc3)nn2c1C` [CBK051484], `COc1ccc([C@@]23CC[C@@H](NC(=O)Nc4ccc(F)c(F)c4)C[C@@H]2N(C)CC3)cc1O` [CBK051630] is lower in viability at 28.5 h, 10 µM: 107% for the first, 88.3% for the second.

First: CS(=O)(=O)NCC1(c2ccccc2)CCN(S(=O)(=O)c2c(Cl)cccc2Cl)CC1 [CBK051633]
Second: COc1ccc([C@@]23CC[C@@H](NS(=O)(=O)Cc4ccccc4)C[C@@H]2N(C)CC3)cc1OC [CBK056665T]
The viability at 28.5 h, 10 µM of the first is lower: 89.9% for the first, 91.4% for the second.

Going from `Cc1cc(F)c(S(N)(=O)=O)cc1NC(=O)CN1CCOCC1` [CBK051649C] to `CC(C)(C)OC(=O)NC1CCC(NCc2cc(F)cc(F)c2)CC1` (stereo not shown) [CBK056689], the viability at 28.5 h, 10 µM falls from 104% to 91.3%.

Going from `COc1ccccc1-c1cc2c(=O)n(C)c(-c3ccc(CNC(C)C)cc3)cc2o1` [CBK051699C] to `C=CCSc1nc2ccccc2c(=O)n1CCc1ccccc1` [CBK055285], the viability at 28.5 h, 10 µM falls from 84.5% to 81.9%.

First: O=C(O)CCCN1C(=O)c2ccccc2C1=O [CBK056635]
Second: COc1ccccc1CNCCNC(=O)OC(C)(C)C [CBK056694]
The viability at 28.5 h, 10 µM of the first is lower: 91.7% for the first, 105% for the second.

First: C#CCN1CC[C@]2(c3ccc(OC)c(OC)c3)CC[C@@H](NC(=O)Nc3ccc(F)c(F)c3)C[C@H]12 [CBK056657]
Second: COc1ccc([C@@]23CCCN(C(=O)Nc4ccc(SC(F)(F)F)cc4)C[C@@H]2N(C)CC3)cc1OC [CBK056681T]
The viability at 28.5 h, 10 µM of the first is higher: 104% for the first, 92.2% for the second.

Compared with `CC(C)(C)OC(=O)NC1CCC(NCc2ccccc2Br)CC1` (stereo not shown) [CBK056684], `CC(C)(C)OC(=O)NC1CCC(NCc2ccncc2)CC1` (stereo not shown) [CBK056688] is higher in viability at 28.5 h, 10 µM: 91.5% for the first, 98.8% for the second.

First: CC(C)(C)OC(=O)NC1CCC(NCc2c[nH]c(-c3ccccc3)n2)CC1 (stereo not shown) [CBK056692]
Second: CC(C)(C)OC(=O)NCCNCc1cc(F)cc(F)c1 [CBK056698]
The viability at 28.5 h, 10 µM of the first is lower: 80.9% for the first, 90.3% for the second.
